PMC8747035, “Design, Synthesis, and Biological Evaluation of 5,6,7,8-Tetrahydrobenzo[4,5]thieno[2,3-d]pyrimidines as Microtubule Targeting Agents” (Molecules, 2022)

How the values were obtained:
Format in all cases: cell-based
[1] = system: HeLa cells; assay: SRB assay in HeLa cells; details: Homo sapiens, read-out: IC50 ± SD in HeLa
Description: Compounds 4–8, 10, 12, and 13 were evaluated for their abilities to overcome βIII-tubulin mediated drug resistance using an isogenic HeLa cell line pair (Table 4). […] The Rr values (Table 4) were calculated by dividing the IC50 of the βIII-tubulin expressing line by the IC50 obtained in the parental HeLa cells.
(§1) The antiproliferative and cytotoxic effects of the compounds in cancer cells were evaluated using the SRB assay as previously described. MDA-MB-435 cells were obtained from the Lombardi Cancer Center of Georgetown University (Washington, DC, USA). SK-OV-3 and HeLa cells were purchased from ATCC. Details about the generation of the SK-OV-3 MDR1-M6/6 and HeLa WTβIII cells were described previously. The IC50 values represent an average of three independent experiments, each conducted using triplicate points.
(§2) HeLa, A-10, SK-OV-3, and SK-OV-3 MDR1-M6/6 cells were grown in Basal Medium Eagle (Sigma-Aldrich, St. Louis, MO, USA) supplemented with 10% FBS (Hyclone, GE Life Sciences, Logan, UT, USA) 1% GlutaMAX (Gibco, Life Technologies, Waltham, MA, USA) and 50 µg/mL gentamycin (Life Technologies, USA). HeLa WTβIII cells were grown in Dulbecco’s Modified Eagle Medium (Life Technologies) supplemented with 10% FBS and 50 µg/mL gentamycin. MDA-MB-435 cells were maintained in Improved Minimum Essential Medium (Life Technologies) supplemented with 10% FBS and 25 µg/mL gentamycin. All cells were grown at 37 °C in a humidified environment with 5% CO2.

[2] = system: SK-OV-3 MDR1-M6/6 cells; assay: SRB assay in Pgp-expressing SK-OV-3 MDR1-M6/6 cells; details: Homo sapiens, SKOV3-MDR1-M6/6, read-out: IC50 ± SD in SK-OV-3 MDR1-M6/6 Cells
Description: Comparison of the IC50 values in the parental SK-OV-3 and genetically manipulated SK-OV-3 MDR1-M6/6 cell line allows for the calculation of a relative resistance value, designated Rr. This value is calculated by dividing the IC50 value obtained in the Pgp-expressing SK-OV-3 MDR1-M6/6 cells by the IC50 obtained in the parental SK-OV-3 cells.
as §1, §2

[3] = system: CCRF-CEM; assay: NCI-60 growth inhibition, CCRF-CEM; details: Homo sapiens, Leukemia
Description: (§3) Compound 4 had better potency than the lead compound 1 in 50 cancer cell lines. (better by 5 to 6-fold in leukemia, 2 to 17-fold in NSCLC, 2 to 6-fold in colon cancer, 2 to 5-fold in CNS cancer, 2 to 25-fold in melanoma, 2 to 5-fold in ovarian cancer, 2 to 9-fold in renal cancer, 2 to 5-fold in prostate cancer, and 2 to 6-fold in breast cancer compared to lead compound 1).

[4] = system: MOLT-4; assay: NCI-60 growth inhibition, MOLT-4; details: Homo sapiens, Leukemia
Description: as §3

[5] = system: A549/ATCC; assay: NCI-60 growth inhibition, A549/ATCC; details: Homo sapiens, NSCLC
Description: as §3

[6] = system: HOP-62; assay: NCI-60 growth inhibition, HOP-62; details: Homo sapiens, NSCLC
Description: as §3

[7] = system: HOP-92; assay: NCI-60 growth inhibition, HOP-92; details: Homo sapiens, NSCLC
Description: as §3

[8] = system: HCT-15; assay: NCI-60 growth inhibition, HCT-15; details: Homo sapiens, Colon Cancer
Description: as §3

[9] = system: SW-620; assay: NCI-60 growth inhibition, SW-620; details: Homo sapiens, Colon Cancer
Description: as §3

[10] = system: SF-295; assay: NCI-60 growth inhibition, SF-295; details: Homo sapiens, CNS Cancer
Description: as §3

[11] = system: SNB-19; assay: NCI-60 growth inhibition, SNB-19; details: Homo sapiens, CNS Cancer
Description: as §3

[12] = system: U251; assay: NCI-60 growth inhibition, U251; details: Homo sapiens, U-251, CNS Cancer
Description: as §3

[13] = system: PC-3; assay: NCI-60 growth inhibition, PC-3; details: Homo sapiens, Prostate Cancer
Description: as §3

[14] = system: DU-145; assay: NCI-60 growth inhibition, DU-145; details: Homo sapiens, Prostate Cancer
Description: as §3

[15] = system: SK-MEL-2; assay: NCI-60 growth inhibition, SK-MEL-2; details: Homo sapiens, Melanoma
Description: as §3

[16] = system: UACC-257; assay: NCI-60 growth inhibition, UACC-257; details: Homo sapiens, Melanoma
Description: as §3

[17] = system: UACC-62; assay: NCI-60 growth inhibition, UACC-62; details: Homo sapiens, Melanoma
Description: as §3

[18] = system: IGROVI; assay: NCI-60 growth inhibition, IGROVI; details: Homo sapiens, Ovarian Cancer
Description: as §3

[19] = system: OVCAR-3; assay: NCI-60 growth inhibition, OVCAR-3; details: Homo sapiens, Ovarian Cancer
Description: as §3

[20] = system: OVCAR-5; assay: NCI-60 growth inhibition, OVCAR-5; details: Homo sapiens, Ovarian Cancer
Description: as §3

[21] = system: NCI/ADR-RES; assay: NCI-60 growth inhibition, NCI/ADR-RES; details: Homo sapiens, Ovarian Cancer
Description: as §3

[22] = system: A498; assay: NCI-60 growth inhibition, A498; details: Homo sapiens, Renal Cancer
Description: as §3

[23] = system: ACHN; assay: NCI-60 growth inhibition, ACHN; details: Homo sapiens, Renal Cancer
Description: as §3

[24] = system: RXF 393; assay: NCI-60 growth inhibition, RXF 393; details: Homo sapiens, Renal Cancer
Description: as §3

[25] = system: MDA-MB-231/ATCC; assay: NCI-60 growth inhibition, MDA-MB-231/ATCC; details: Homo sapiens, Breast Cancer
Description: as §3

[26] = system: HS 578T; assay: NCI-60 growth inhibition, HS 578T; details: Homo sapiens, Breast Cancer
Description: as §3

`COc1ccc(N(C)c2nc(N)nc3sc4c(c23)CCCC4)cc1` [Compound 4, N4-(4-methoxyphenyl)-N4-methyl-5,6,7,8-tetrahydrobenzo[4,5]thieno[2,3-d]pyrimidine-2,4-diamine] was tested, and the IC50 [1] was 13.5 ± 1.5 nM, the IC50 [2] was 17.5 ± 0.8 nM and the GI50 [3] was 7.12 nM. It also gave a GI50 [4] of 8.8 nM, a GI50 [5] of 12 nM and a GI50 [6] of 17.7 nM. It also gave a GI50 [7] of 14.1 nM, a GI50 [8] of 8.85 nM and a GI50 [9] of 5.63 nM. The GI50 [10] was 10.2 nM, the GI50 [11] was 9.04 nM and the GI50 [12] was 9.6 nM. It also gave a GI50 [13] of 7.67 nM, a GI50 [14] of 15.6 nM and a GI50 [15] of 11.8 nM. For the same compound, the GI50 [16] was 18.4 nM, the GI50 [17] was 14.9 nM and the GI50 [18] was 12.8 nM. The GI50 [19] was 17.1 nM, the GI50 [20] was 10.8 nM and the GI50 [21] was 6.19 nM. It also gave a GI50 [22] of 12 nM, a GI50 [23] of 10.2 nM and a GI50 [24] of 7.65 nM. The GI50 [25] was 10.9 nM and the GI50 [26] was 13.5 nM.
